Experimental data taken from patent US6525065B1, “Pharmaceutical compositions and methods for effecting dopamine release” (priority 1997, dated 2003).
Counter-ions that a name gives are not always drawn. Like-named read-outs stand apart in the source and are kept apart here.

Columns and labels:
dopamine release = experiment: tissue or blood; format: cell-based; settings: for Dopamine Release Ecmax: amount released relative to (S)-(-)-nicotine on a percentage basis; for EC50: read-out: Dopamine Release EC50
[1] = target: T1, muscle-type nicotinic acetylcholine receptors (Homo sapiens, UniProt P02708+P07510+Q07001); experiment: cell-based
T1 construct: endogenous in cells; host or cells: TE671/RD (own knowledge of the cited US 5,597,919)
T1 sequence (P02708 21-457): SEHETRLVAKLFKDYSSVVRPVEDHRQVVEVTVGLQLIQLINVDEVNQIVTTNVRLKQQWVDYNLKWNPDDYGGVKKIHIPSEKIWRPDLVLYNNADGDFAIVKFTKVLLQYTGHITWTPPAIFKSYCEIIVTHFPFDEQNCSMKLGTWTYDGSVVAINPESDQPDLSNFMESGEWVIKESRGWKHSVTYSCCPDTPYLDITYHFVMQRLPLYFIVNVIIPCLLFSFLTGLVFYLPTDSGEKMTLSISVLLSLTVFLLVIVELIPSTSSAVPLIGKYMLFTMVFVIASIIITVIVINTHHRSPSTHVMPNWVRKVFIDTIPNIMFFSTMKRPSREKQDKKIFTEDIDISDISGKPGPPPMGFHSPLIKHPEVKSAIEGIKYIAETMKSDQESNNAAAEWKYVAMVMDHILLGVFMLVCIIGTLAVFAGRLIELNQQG
T1 sequence (P11230 24-501 partner): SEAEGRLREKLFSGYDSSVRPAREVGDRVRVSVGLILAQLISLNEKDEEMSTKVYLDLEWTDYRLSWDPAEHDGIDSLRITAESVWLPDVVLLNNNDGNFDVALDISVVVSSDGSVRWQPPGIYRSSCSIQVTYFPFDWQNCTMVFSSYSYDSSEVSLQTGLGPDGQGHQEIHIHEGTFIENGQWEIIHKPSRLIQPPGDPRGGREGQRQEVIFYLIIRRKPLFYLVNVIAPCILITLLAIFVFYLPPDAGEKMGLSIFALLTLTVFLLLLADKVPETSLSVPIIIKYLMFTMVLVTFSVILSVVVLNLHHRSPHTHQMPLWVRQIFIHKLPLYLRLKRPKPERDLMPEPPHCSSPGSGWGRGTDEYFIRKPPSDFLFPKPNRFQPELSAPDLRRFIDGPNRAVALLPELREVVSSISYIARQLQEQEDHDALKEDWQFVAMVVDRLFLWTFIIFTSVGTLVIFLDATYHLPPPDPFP
T1 sequence (Q07001 22-517): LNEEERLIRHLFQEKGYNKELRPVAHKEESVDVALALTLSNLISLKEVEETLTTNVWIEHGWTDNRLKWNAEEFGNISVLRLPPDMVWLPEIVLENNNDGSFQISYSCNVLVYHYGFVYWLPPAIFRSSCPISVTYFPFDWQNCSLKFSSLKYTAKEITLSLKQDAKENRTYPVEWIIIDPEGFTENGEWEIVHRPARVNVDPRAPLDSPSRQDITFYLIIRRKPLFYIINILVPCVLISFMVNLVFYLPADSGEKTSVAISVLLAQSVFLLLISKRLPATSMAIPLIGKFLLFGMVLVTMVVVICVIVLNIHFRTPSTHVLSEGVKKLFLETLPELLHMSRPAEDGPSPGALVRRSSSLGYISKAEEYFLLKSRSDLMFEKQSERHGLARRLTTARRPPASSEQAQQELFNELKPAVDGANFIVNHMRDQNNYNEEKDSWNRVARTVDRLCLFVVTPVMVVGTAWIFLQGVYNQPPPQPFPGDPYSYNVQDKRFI
T1 sequence (P07510 23-517): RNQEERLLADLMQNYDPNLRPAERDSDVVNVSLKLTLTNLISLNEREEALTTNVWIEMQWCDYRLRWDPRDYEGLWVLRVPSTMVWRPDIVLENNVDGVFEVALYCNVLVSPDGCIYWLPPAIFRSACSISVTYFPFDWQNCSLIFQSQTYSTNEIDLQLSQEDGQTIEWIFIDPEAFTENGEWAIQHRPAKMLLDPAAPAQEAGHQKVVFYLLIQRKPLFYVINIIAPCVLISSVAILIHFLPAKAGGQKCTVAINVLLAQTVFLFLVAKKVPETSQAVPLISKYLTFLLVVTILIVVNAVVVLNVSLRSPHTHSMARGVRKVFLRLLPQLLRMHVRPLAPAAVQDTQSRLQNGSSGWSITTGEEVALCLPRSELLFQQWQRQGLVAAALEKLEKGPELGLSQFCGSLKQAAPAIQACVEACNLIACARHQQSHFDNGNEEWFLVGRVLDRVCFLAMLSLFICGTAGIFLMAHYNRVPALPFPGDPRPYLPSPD

[2] = target: ganglionic-type nicotinic acetylcholine receptors (Rattus norvegicus, UniProt P04757+P12392); experiment: cell-based; settings: read-out: Ganglion Effect Ecmax
Sequence of ganglionic-type nicotinic acetylcholine receptors (P04757 26-499): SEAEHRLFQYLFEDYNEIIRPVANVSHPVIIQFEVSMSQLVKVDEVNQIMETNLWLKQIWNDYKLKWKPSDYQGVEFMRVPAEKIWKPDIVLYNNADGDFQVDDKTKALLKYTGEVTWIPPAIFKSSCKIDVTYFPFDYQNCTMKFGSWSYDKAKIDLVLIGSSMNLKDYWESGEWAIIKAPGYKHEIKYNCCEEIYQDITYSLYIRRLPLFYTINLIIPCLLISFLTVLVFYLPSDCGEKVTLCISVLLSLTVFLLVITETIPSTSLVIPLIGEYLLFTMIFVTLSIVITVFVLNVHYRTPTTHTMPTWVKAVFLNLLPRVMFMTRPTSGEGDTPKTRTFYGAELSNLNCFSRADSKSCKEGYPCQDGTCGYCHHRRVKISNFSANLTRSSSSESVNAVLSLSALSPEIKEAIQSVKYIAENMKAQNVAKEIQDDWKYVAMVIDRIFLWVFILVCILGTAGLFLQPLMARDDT
Sequence of ganglionic-type nicotinic acetylcholine receptors (P12392 21-495): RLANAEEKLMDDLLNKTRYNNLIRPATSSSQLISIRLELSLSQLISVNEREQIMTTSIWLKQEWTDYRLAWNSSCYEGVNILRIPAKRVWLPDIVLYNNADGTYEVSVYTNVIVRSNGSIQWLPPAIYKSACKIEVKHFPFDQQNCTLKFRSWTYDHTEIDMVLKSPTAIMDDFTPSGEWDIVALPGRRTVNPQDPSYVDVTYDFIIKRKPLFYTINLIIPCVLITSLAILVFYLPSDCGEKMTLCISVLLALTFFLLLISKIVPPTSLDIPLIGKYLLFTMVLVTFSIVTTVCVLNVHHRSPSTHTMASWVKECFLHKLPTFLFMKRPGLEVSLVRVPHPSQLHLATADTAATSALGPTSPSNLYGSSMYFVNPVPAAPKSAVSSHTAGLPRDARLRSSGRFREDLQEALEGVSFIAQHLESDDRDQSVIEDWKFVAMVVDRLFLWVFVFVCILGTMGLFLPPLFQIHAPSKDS

[3] = maximal activation as percentage of that induced by (S)-(-)-nicotine
[4] = read-out: Dopamine Release Ecmax, amount released relative to (S)-(-)-nicotine on a percentage basis
[5] = read-out: Dopamine Release Ecmax

SMILES	Dopamine Release Ecmax (dopamine release)	EC50 (dopamine release)	amounts causing muscle effects and effects upon ganglia relative to those required to cause dopamine release (dopamine release; selectivity of dopamine release over muscle and ganglion effects)	Muscle Effect Ecmax [1, 3]	EC50 ([1]; read-out: Muscle Effect EC50)	Emax [2, 3]	Emax [2]	Emax (dopamine release; [4])	EC50 [1]	Emax (dopamine release; [5])	Muscle Effect Ecmax [1]
Nc1cncc(C2CC3CCN2CC3)c1 (stereo not drawn) [Sample No. 6, 5-(1-azabicyclo[2.2.2]oct-2-yl-3-(amino)pyridinetrihydrochloride]	43%	7 nM	many times	100%	3000 nM	75%					
Brc1cncc(C2CC3CCN2CC3)c1 (racemic) [Sample No. 2]	43%	2 nM		133%			106%				
c1cncc(C2C3CCN2CC3)c1 (stereo not drawn) [Sample No. 5, 1-aza-7-(3-pyridyl)bicyclo[2.2.1]heptane]		4 nM		130%			120%	93%	300 nM		
c1cncc([C@H]2C[C@@H]3CCN2C3)c1 (relative stereo) [Sample No. 3, exo 1-aza-2-(3-pyridyl)bicyclo[2.2.1]heptane]		6 nM		130%			100%	130%	100 nM		
CN1CCC[C@H]1c1cccnc1 [Sample No. C-1, (S)-(−)-nicotine, reference compound]		115 nM							60000 nM	100%	100%
c1cncc(C2CC3CCN2CC3)c1 (racemic) [Sample No. 1, (+/−)-1-aza-2-(3-pyridyl)bicyclo[2.2.2]octane]		2 nM					85%			40%	110%
CCOc1cncc(C2CC3CCN2CC3)c1.Cl.Cl (stereo not drawn) [Sample No. 7, 5-(1-azabicyclo[2.2.2]oct-2-yl)-3-(ethoxy)pyridine dihydrochloride]		5 nM		137%			86%	40%	700 nM		
CC(C)Oc1cncc(C2CC3CCN2CC3)c1 (stereo not drawn) [Sample No. 8, 5-(1-azabicyclo[2.2.2]oct-2-yl-3-(isopropyloxy)pyridinedihydrochloride]					3000 nM		94%				
c1cncc([C@@H]2C[C@@H]3CCN2C3)c1 (relative stereo) [Sample No. 4, endo-1-aza-2-(3-pyridyl)bicyclo[2.2.1]heptane]	114%	33 nM		130%	100 nM						
